Data as given in patent EP0791004B1, “ACYLATED BENZYLGLYCOSIDES AS INHIBITORS OF SMOOTH MUSCLE CELL PROLIFERATION” (AMERICAN HOME PRODUCTS CORPORATION, priority 1994, dated 1996).

Columns and labels:
[1] = system: Porcine Smooth Muscle Cell; assay: Smooth muscle cell proliferation, 3H thymidine incorporation (serum stimulated); assay type: cell-based; conditions: for IC50: 3H thymidine incorporation, read-out: Porcine Smooth Muscle Cell Antiproliferation IC50
Protocol: The ability of the compounds of the present invention to inhibit smooth muscle cell proliferation was established using isolated aortic cells. Porcine aortas were received from a local slaughterhouse and were iced during transit. The aorta was scrupulously cleansed of fatty tissue and rinsed in sterile phosphate-buffered saline with 2% antibiotic/antimycotic (Gibco catalog # 600 - 5240 AG). The tissue was then digested in 10 - 15 mL of "Enzyme Mixture" containing collagenase type I, 165 U/mL; elastase type III, 15 U/mL; BSA, 2 mg/mL; and soybean trypsin inhibitor, 0.375 mg/mL followed by incubation at 37 °C under 5% CO2 for 10 - 15 min. After this treatment, the outer surface adventitia was easily removed by peeling with forceps. The aorta was then longitudinally cut and laid open and the endothelial layer was removed by scraping.
The medial layer of cells was rinsed in enzyme solution, and placed in a new 100 mm dish with 10 mL of enzyme solution. The aorta was minced using a fine pair of scissors and digested for 2 - 3 h at 37 °C in 30 mL of fresh enzyme solution. After digestion, the tissue was homogenized using a sterile Pasteur pipette with a fire polished tip or an eppendorf pipetter with a 200 - 1000 µL sterile pipette tip. The suspension was then centrifuged for 10 minutes at 8000 rpm and the pellet was suspended in 4 - 6 mL of fresh medium and plated onto 4 - 6 100 mm flasks with vented caps. Cells were allowed to grow to confluence and split using 0.25 % trypsin. Cells were evaluated for purity and overall quality using antibody to SMC actin.
Cells were assayed in early passage (generally passage 3 - 7) at sub-confluent conditions. Cultures were grown in 16 mm (24 well) multi-well culture dishes in medium 199 supplemented with 10% fetal bovine serum and 2% antibiotic/ antimycotic. At sub-confluence, the cells were placed in a defined serum free medium (AIM-V; Gibco) for 24 - 48 h prior to initiating the experimental protocol.
Compounds were added to each well at 50 fold dilution (20 µL / well) and the plates were incubated for 24 - 36 h at 37 °C in 5% CO2. Compounds were initially dissolved in 50% ethanol and serially diluted into media. Compounds were routinely assayed at concentrations from 1 to 100 µM. As a control, grade II porcine intestinal mucosal heparin (sodium salt) from Sigma (H-7005) was routinely assayed in all cell preparations at concentrations from 0.1 to 100 µg/mL.
At the completion of the experiment, plates were placed on ice, washed three times with ice cold phosphate buffered saline (PBS) and incubated in ice cold 10% trichloroacetic acid (TCA) for 30 minutes to remove acid soluble proteins. Solution was transferred to scintillation vials containing 0.4 N HCl (500 µL/vial to neutralize NaOH) and each well was rinsed two times with water (500 µL) for a total volume of 2 mL/vial.
Data was obtained, in triplicate, for both control and experimental samples. Control (100%) data was obtained from maximally stimulated cells, as the result of growth factor or serum stimulation. Experimental data was obtained from cells maximally stimulated with growth factor or serum and treated with compound. Data was expressed as a percent of control from which a percent inhibition or IC50 could be determined.

[2] = system: Porcine Smooth Muscle Cell; assay: Cytotoxicity, MTT assay; assay type: cell-based; conditions: up to 100 µg/mL; 24 h, medium without serum
Protocol: Briefly, cells were again grown in 24 well plates to 70 - 80 % confluency and, as before, serum deprived for 24 - 48 h prior to initiation of the experimental protocol. To insure that the MTT assay monitored toxicity rather than proliferation, cells were incubated with 100 µg/mL of drug in fresh medium without serum for 24 h at 37 °C in a humidified CO2 incubator. Upon completion of the compound treatment, MTT (3-[4,5-dimethylthiazol-2-yl]-2,5-diphenyltetrazolium bromide) indicator dye was added for 4 h at 37 °C. Cells were then lysed and aliquots from each well were transferred to a 96 well plate for analysis. Absorbance at 570 nm wavelength with a reference wavelength of 630 nm was recorded using an ELISA plate reader. Results were determined as percent viable using no drug (100% viable) and pre-solubilization (0% viable) standards.

[3] = system: normal human plasma; assay: Anticoagulant activity, partial thromboplastin time (APTT) assay; assay type: biochemical; conditions: human citrated plasma
Protocol: The anticlotting activity of the compounds of this invention was evaluated in a partial thromboplastin time (APTT) assay using normal human plasma collected from 5 donors according to the procedure of Fenichel et. al. (Clin. Chem. 1964, 10, 69). A BBL Fibrometer automatic precision coagulation timer utilizing a 0.3 mL probe was employed. An Ellagic acid activated partial thromboplastin was used for these experiments. This reagent was added to human citrated plasma equilibrated at 37 °C in a plastic well in the clot timer. Calcium at 37 °C was added, the clot timer was started and the time for fibrin clot formation (in seconds) was recorded. The effect of the compounds, added to plasma, over a concentration of 12.5 - 200 µg/mL was determined. […] An unfractionated heparin comparator was used over the concentration range of 1.25 - 10 µg/mL. Clotting tests at all concentrations were run in triplicate. Analysis of variance for a randomized block design was used to determine the significance of differences observed in the clotting times. […]

[4] = Sus scrofa, read-out: Porcine Smooth Muscle Cell Antiproliferation (% Inhibition at x concentration)

CC(=O)OC[C@H]1O[C@@H](OCc2ccc(C)c(NC(=O)c3cccc([N+](=O)[O-])c3)c2)[C@H](OC(C)=O)[C@@H](OC(C)=O)[C@@H]1OC(C)=O [Example 1, N-[2-Methyl-5-(2,3,4,6-tetra-O-acetyl-β-D-glucopyranosyloxymethyl)phenyl]-3-nitrobenzamide]
inhibition at 50 µg/mL [1, 4]: 79%

CC(=O)OC[C@H]1O[C@@H](OCc2ccc(C)c(NC(=O)c3cccc(N)c3)c2)[C@H](OC(C)=O)[C@@H](OC(C)=O)[C@@H]1OC(C)=O [Example 2, 3-Amino-N-[2-methyl-5-(2,3,4,6-tetra-O-acethyl-β-D-glucopyranosyloxymethyl)phenyl]benzamide]
inhibition at 50 µg/mL [1, 4]: 23%

CC(=O)OC[C@H]1O[C@H](O[C@H]2[C@H](OC(C)=O)[C@@H](OC(C)=O)[C@H](OCc3ccc(C)c(N)c3)O[C@@H]2COC(C)=O)[C@H](OC(C)=O)[C@@H](OC(C)=O)[C@@H]1OC(C)=O [Example 3, 5-(Hepta-O-acetyl-β-maltosyloxymethyl)-2-methylphenylamine]
toxicity (MTT, percent viable) [2]: no toxicity | anticoagulant activity (APTT assay) [3]: no anticoagulant activity

CC(=O)OC[C@H]1O[C@H](O[C@H]2[C@H](OC(C)=O)[C@@H](OC(C)=O)[C@H](OCc3ccc(C)c(NC(=O)c4cccc([N+](=O)[O-])c4)c3)O[C@@H]2COC(C)=O)[C@H](OC(C)=O)[C@@H](OC(C)=O)[C@@H]1OC(C)=O [Example 4, N-[5-(Hepta-O-acetyl-β-D-maltosyloxymethyl)-2-methylphenyl]-3-nitrobenzamide]
inhibition at 50 µg/mL [1, 4]: 13%

CC(=O)OC[C@H]1O[C@H](O[C@H]2[C@H](OC(C)=O)[C@@H](OC(C)=O)[C@H](OCc3ccc(C)c(NC(=O)c4cccc(N)c4)c3)O[C@@H]2COC(C)=O)[C@H](OC(C)=O)[C@@H](OC(C)=O)[C@@H]1OC(C)=O [Example 5, N-[5-(Hepta-O-acetyl-β-D-maltosyloxymethyl)-2-methylphenyl]-3-aminobenzamide]
inhibition at 50 µg/mL [1, 4]: 44%

CC(=O)Nc1cccc(C(=O)Nc2cc(CO[C@@H]3O[C@H](COC(C)=O)[C@@H](O[C@H]4O[C@H](COC(C)=O)[C@@H](OC(C)=O)[C@H](OC(C)=O)[C@H]4OC(C)=O)[C@H](OC(C)=O)[C@H]3OC(C)=O)ccc2C)c1 [Example 6, 3-Acetylamino-N-[5-(hepta-O-acetyl-β-D-maltosyloxymethyl)-2-methylphenyl]benzamide]
toxicity (MTT, percent viable) [2]: no toxicity

CCC(=O)Nc1cc(CO[C@@H]2O[C@H](COC(C)=O)[C@@H](O[C@H]3O[C@H](COC(C)=O)[C@@H](OC(C)=O)[C@H](OC(C)=O)[C@H]3OC(C)=O)[C@H](OC(C)=O)[C@H]2OC(C)=O)ccc1C [Example 11, N-[5-(Hepta-O-acetyl-β-D-maltosyloxymethyl)-2-methylphenyl]propionamide]
toxicity (MTT, percent viable) [2]: no toxicity | anticoagulant activity (APTT assay) [3]: no anticoagulant activity

CC(=O)OC[C@H]1O[C@H](O[C@H]2[C@H](OC(C)=O)[C@@H](OC(C)=O)[C@H](OCc3ccc(C)c(NC(=O)C4CC4)c3)O[C@@H]2COC(C)=O)[C@H](OC(C)=O)[C@@H](OC(C)=O)[C@@H]1OC(C)=O [Example 14, Cyclopropanecarboxylic Acid N-[5-(Hepta-O-acetyl-β-D-maltosyloxymethyl)-2-methylphenyl]amide]
toxicity (MTT, percent viable) [2]: no toxicity

CC(=O)OC[C@H]1O[C@H](O[C@H]2[C@H](OC(C)=O)[C@@H](OC(C)=O)[C@H](OCc3ccc(C)c(NC(=O)C4CCCC4)c3)O[C@@H]2COC(C)=O)[C@H](OC(C)=O)[C@@H](OC(C)=O)[C@@H]1OC(C)=O [Example 15, Cyclopentanecarboxylic Acid N-[5-(Hepta-O-acetyl-β-D-maltosyloxymethyl)-2-methylphenyl]amide]
toxicity (MTT, percent viable) [2]: no toxicity

CC(=O)OC[C@H]1O[C@H](O[C@H]2[C@H](OC(C)=O)[C@@H](OC(C)=O)[C@H](OCc3ccc(C)c(NC(=O)CCC4CCCC4)c3)O[C@@H]2COC(C)=O)[C@H](OC(C)=O)[C@@H](OC(C)=O)[C@@H]1OC(C)=O [Example 16, N-[5-(Hepta-O-acetyl-β-D-maltosyloxymethyl)-2-methylphenyl]-3-cyclopentylpropionamide]
toxicity (MTT, percent viable) [2]: no toxicity

CC(=O)OC[C@H]1O[C@H](O[C@H]2[C@H](OC(C)=O)[C@@H](OC(C)=O)[C@H](OCc3ccc(C)c(NS(=O)(=O)c4ccc(C)cc4)c3)O[C@@H]2COC(C)=O)[C@H](OC(C)=O)[C@@H](OC(C)=O)[C@@H]1OC(C)=O [Example 24, N-[5-(Hepta-O-acetyl-β-D-maltosyloxymethyl)-2-methylphenyl]-4-methylbenzenesulfonamide]
inhibition at 40 µM [1, 4]: 61%

CC(=O)OC[C@H]1O[C@H](O[C@H]2[C@H](OC(C)=O)[C@@H](OC(C)=O)[C@H](OCc3ccc(N)c(C)c3)O[C@@H]2COC(C)=O)[C@H](OC(C)=O)[C@@H](OC(C)=O)[C@@H]1OC(C)=O [Example 29, 4-(Hepta-O-acetyl-β-D-maltosyloxymethyl)-2-methylphenylamine]
inhibition at 40 µM [1, 4]: 70%

CC(=O)OC[C@H]1O[C@H](O[C@H]2[C@H](OC(C)=O)[C@@H](OC(C)=O)[C@H](OCc3ccc(N(S(=O)(=O)c4ccc([N+](=O)[O-])cc4)S(=O)(=O)c4ccc([N+](=O)[O-])cc4)c(C)c3)O[C@@H]2COC(C)=O)[C@H](OC(C)=O)[C@@H](OC(C)=O)[C@@H]1OC(C)=O [Example 31, N-[4-(Hepta-O-acetyl-β-D-maltosyloxymethyl)-2-methylphenyl]-4-nitro-N-(4-nitrophenylsulfonyl)benzenesulfonamide]
inhibition at 100 µM ([1]; Sus scrofa, at 100 µM, read-out: Porcine Smooth Muscle Cell Antiproliferation (% Inhibition at x concentration)): 37%

CCC(=O)OC[C@H]1O[C@H](O[C@H]2[C@H](OC(=O)CC)[C@@H](OC(=O)CC)[C@H](OCc3ccc(C)c(N(C(=O)CC)S(=O)(=O)c4ccc(N(C(=O)CC)S(C)(=O)=O)cc4)c3)O[C@@H]2COC(=O)CC)[C@H](OC(=O)CC)[C@@H](OC(=O)CC)[C@@H]1OC(=O)CC [Example 33, N-Propionyl-4-[propionyl(methanesulfonyl)amino]-N-[5-(hepta-O-propionyl-β-D-maltosyloxymethyl)-2-methylphenyl]benzenesulfonamide]
inhibition at 20 µM ([1]; Sus scrofa, at 20 µM, read-out: Porcine Smooth Muscle Cell Antiproliferation (% Inhibition at x concentration)): 30%

Butane-1-sulfonic Acid N-[5-(Hepta-O-acetyl-β-D-maltosyloxymethyl)-2-methylphenyl]amide [Example 28]
IC50 [1]: 9 µM

N-{3-[2-(Hepta-O-acetyl-β-D-maltosyloxymethyl)-6-methylphenylcarbamoyl]phenyl}-3,5-di-tert-butyl-4-hydroxybenzamide [Example 7]
IC50 [1]: 185 µM
